Data reported in ChEMBL document CHEMBL3871284, “Structure-activity relationship-based screening of antibiotics against Gram-negative Acinetobacter baumannii” (Bioorg Med Chem, 2017).
≈ marks a conversion by molar mass, not a printed value. Calls of active or inactive are those of the source. No cut-off for these calls is given here.

Experiments:
Staphylococcus aureus [1] = assay: Antimicrobial activity against Staphylococcus aureus after 16 hrs by broth microdilution assay; type: functional
[2] = Binding affinity to Acinetobacter baumannii His-tagged KAS3 expressed in Escherichia coli BL21(DE3) by tryptophan emission assay
Escherichia coli [3] = assay: Antimicrobial activity against multidrug resistant Escherichia coli CCARM 1238 after 16 hrs by broth microdilution assay; type: functional; conditions: CCARM 1238, 16 h
Escherichia coli [4] = assay: Antimicrobial activity against Escherichia coli KCTC 1682 after 16 hrs by broth microdilution assay; type: functional; conditions: KCTC 1682, 16 h
Pseudomonas aeruginosa [5] = assay: Antimicrobial activity against multidrug resistant Pseudomonas aeruginosa CCARM 2163 after 16 hrs by broth microdilution assay; type: functional; conditions: CCARM 2163, 16 h
Acinetobacter baumannii [6] = assay: Antimicrobial activity against multidrug resistant Acinetobacter baumannii CCARM 12036 after 16 hrs by broth microdilution assay; type: functional; conditions: CCARM 12036, 16 h
Pseudomonas aeruginosa [7] = assay: Antimicrobial activity against multidrug resistant Pseudomonas aeruginosa CCARM 2095 after 16 hrs by broth microdilution assay; type: functional; conditions: CCARM 2095, 16 h
Acinetobacter baumannii [8] = assay: Antimicrobial activity against Acinetobacter baumannii KCTC 2508 after 16 hrs by broth microdilution assay; type: functional; conditions: KCTC 2508, 16 h
Bacillus subtilis = assay: Antimicrobial activity against Bacillus subtilis after 16 hrs by broth microdilution assay; type: functional
Acinetobacter baumannii [9] = assay: Antimicrobial activity against multidrug resistant Acinetobacter baumannii CCARM 12005 after 16 hrs by broth microdilution assay; type: functional; conditions: CCARM 12005, 16 h
Staphylococcus aureus [10] = assay: Antimicrobial activity against Methicillin-resistant Staphylococcus aureus isolate 3114 after 16 hrs by broth microdilution assay; type: functional; conditions: isolate 3114, 16 h
[11] = tested on: Staphylococcus epidermidis; assay: Antimicrobial activity against Staphylococcus epidermidis after 16 hrs by broth microdilution assay; type: functional
Acinetobacter baumannii [12] = assay: Antimicrobial activity against multidrug resistant Acinetobacter baumannii CCARM 12037 after 16 hrs by broth microdilution assay; type: functional; conditions: CCARM 12037, 16 h
Acinetobacter baumannii [13] = assay: Antimicrobial activity against multidrug resistant Acinetobacter baumannii CCARM 12035 after 16 hrs by broth microdilution assay; type: functional; conditions: CCARM 12035, 16 h
Staphylococcus aureus [14] = assay: Antimicrobial activity against Methicillin-resistant Staphylococcus aureus 3126 after 16 hrs by broth microdilution assay; type: functional; conditions: Staphylococcus aureus, 3126, 16 h
Escherichia coli [15] = assay: Antimicrobial activity against multidrug resistant Escherichia coli CCARM 1229 after 16 hrs by broth microdilution assay; type: functional; conditions: CCARM 1229, 16 h
Pseudomonas aeruginosa [16] = assay: Antimicrobial activity against multidrug resistant Pseudomonas aeruginosa CCARM 2002 after 16 hrs by broth microdilution assay; type: functional; conditions: CCARM 2002, 16 h
Pseudomonas aeruginosa [17] = assay: Antimicrobial activity against Pseudomonas aeruginosa KCTC 1637 after 16 hrs by broth microdilution assay; type: functional; conditions: KCTC 1637, 16 h
[18] = Antiinflammatory activity in mouse RAW264.7 cells assessed as inhibition of LPS-stimulated IL6 mRNA expression at 10 uM after 3 hrs in presence of LPS by RT-PCR analysis; type: functional; conditions: RAW264.7, 3 h
[19] = Antiinflammatory activity in mouse RAW264.7 cells assessed as inhibition of LPS-stimulated MIP1 mRNA expression at 10 uM after 3 hrs in presence of LPS by RT-PCR analysis; type: functional; conditions: RAW264.7, 3 h
[20] = Antiinflammatory activity in mouse RAW264.7 cells assessed as inhibition of LPS-stimulated IL1beta mRNA expression at 10 uM after 3 hrs in presence of LPS by RT-PCR analysis; type: functional; conditions: RAW264.7, 3 h
[21] = Antiinflammatory activity in mouse RAW264.7 cells assessed as inhibition of LPS-stimulated iNOS mRNA expression at 10 uM after 3 hrs in presence of LPS by RT-PCR analysis; type: functional; conditions: RAW264.7, 3 h
[22] = Binding affinity to Acinetobacter baumannii His-tagged KAS3 expressed in Escherichia coli BL21(DE3) by isothermal titration calorimetry assay
[23] = Antiinflammatory activity in mouse RAW264.7 cells assessed as inhibition of LPS-stimulated TNFalpha mRNA expression at 10 uM after 3 hrs in presence of LPS by RT-PCR analysis; type: functional; conditions: RAW264.7, 3 h
[24] = Antiinflammatory activity in mouse RAW264.7 cells assessed as inhibition of LPS-stimulated MIP2 mRNA expression at 10 uM after 3 hrs in presence of LPS by RT-PCR analysis; type: functional; conditions: RAW264.7, 3 h
RAW264.7 = assay: Antiinflammatory activity in mouse RAW264.7 cells assessed as inhibition of LPS-stimulated NO production at 10 to 20 uM after 24 hrs in presence of LPS; type: functional, cell-based

Row | Structure (SMILES) | MIC (Staphylococcus aureus [1]) [µg/mL] | Kd [2] [µM] | MIC (Escherichia coli [3]) [µg/mL] | MIC (Escherichia coli [4]) [µg/mL] | MIC (Pseudomonas aeruginosa [5]) [µg/mL] | MIC (Acinetobacter baumannii [6]) [µg/mL] | MIC (Pseudomonas aeruginosa [7]) [µg/mL] | MIC (Acinetobacter baumannii [8]) [µg/mL] | MIC (Bacillus subtilis) [µg/mL] | MIC (Acinetobacter baumannii [9]) [µg/mL] | MIC (Staphylococcus aureus [10]) [µg/mL] | MIC [11] [µg/mL] | MIC (Acinetobacter baumannii [12]) [µg/mL] | MIC (Acinetobacter baumannii [13]) [µg/mL] | MIC (Staphylococcus aureus [14]) [µg/mL] | MIC (Escherichia coli [15]) [µg/mL] | MIC (Pseudomonas aeruginosa [16]) [µg/mL] | MIC (Pseudomonas aeruginosa [17]) [µg/mL] | other results
1 | COc1ccc(/C=N/NCc2ccc(C(F)(F)F)cc2)c(O)c1 | > 32 | 22 | > 32 | > 32 | > 32 | > 32 | > 32 | > 32 | > 32 | > 32 | > 32 | > 32 | > 32 | > 32 | > 32 | > 32 | > 32 | > 32 | –
2 | CCCOc1ccc(/C=N/NCc2ccc(C(F)(F)F)cc2)c(O)c1 | > 32 | 28.8 | > 32 | > 32 | > 32 | > 32 | > 32 | > 32 | > 32 | > 32 | > 32 | > 32 | > 32 | > 32 | > 32 | > 32 | > 32 | > 32 | –
3 | CCCOc1ccc(/C=N/NCc2ccc3ccccc3c2)c(O)c1 | > 32 | 21.7 | > 32 | > 32 | > 32 | > 32 | > 32 | > 32 | > 32 | > 32 | > 32 | > 32 | > 32 | > 32 | > 32 | > 32 | > 32 | > 32 | –
4 | Cc1ccc(/C=N/NCc2ccc(O)cc2O)cc1Cl | 8 (≈ 27.5 µM) | 0.916 | > 32 | 32 (≈ 110 µM) | 32 (≈ 110 µM) | 2 (≈ 6.88 µM) | 32 (≈ 110 µM) | 2 (≈ 6.88 µM) | 16 (≈ 55 µM) | 4 (≈ 13.8 µM) | 32 (≈ 110 µM) | 8 (≈ 27.5 µM) | 2 (≈ 6.88 µM) | 2 (≈ 6.88 µM) | > 32 | > 32 | > 32 | 4 (≈ 13.8 µM) | inhibition at 10 µM [18]: 50.6%; inhibition at 10 µM [19]: > 70%; inhibition at 10 µM [20]: 10.3%; inhibition at 10 µM [21]: > 70%; Kd [22]: 0.197 µM; inhibition at 10 µM [23]: > 70%; inhibition at 10 µM [24]: > 70%; inhibition (RAW264.7): Active
5 | Oc1ccc(/C=N/NCc2ccc(C(F)(F)F)cc2)c(O)c1 | 2 (≈ 6.45 µM) | 0.596 | > 32 | > 32 | > 32 | 16 (≈ 51.6 µM) | > 32 | 16 (≈ 51.6 µM) | 4 (≈ 12.9 µM) | 8 (≈ 25.8 µM) | 4 (≈ 12.9 µM) | 16 (≈ 51.6 µM) | 16 (≈ 51.6 µM) | 16 (≈ 51.6 µM) | 8 (≈ 25.8 µM) | > 32 | > 32 | > 32 | –
6 | CCOc1ccc(/C=N/NCc2ccc(Cl)c(Cl)c2)c(O)c1 | > 32 | > 100 | > 32 | > 32 | > 32 | > 32 | > 32 | > 32 | > 32 | > 32 | > 32 | > 32 | > 32 | > 32 | > 32 | > 32 | > 32 | > 32 | –
